The test system of assay [1] is AMPK kinase. The experiment in a line: AMPK enzyme activity assay (CycLex AMPK Kinase Assay Kit). The class given is biochemical. The following applies: indicated concentrations, n=3, ** p<0.005, ***p<0.001. The text has this: The CycLex AMPK Kinase Assay Kit (CycLex Co., Ltd., Nagano, Japan) was used to detect the activation of AMPK by D561-0775. AMP was used as positive control, compound c was used as AMPK inhibitor, and AMPK kinase was used for representing the basal level.

Assay [2] concerns H1975 cells. The experiment in a line: Apoptosis assay (Annexin V/PI flow cytometry, morphology observation). It counts as cell-based. As to conditions: 48 h. On the procedure: H1975 cells (1×10^5 cells/well) were seeded in a 6-well plate for 24 hours, and treated with the indicated concentrations of D561-0775 for an additional 48 hours at 37° C. After 48 hours, the cells were washed by ice-cold 1×PBS once and harvested by trypsination. Then cells were centrifuged, collected and re-suspended in ice-cold 1×PBS. After removing the supernatants, cell pellets were re-suspended in 100 μL 1× Annexin-binding buffer. The cells were then double-stained with Annexin-V FITC and PI (100 μg/mL) of 2 μL respectively for 15 min at room temperature in dark. After that, 300 μL 1× Annexin-binding buffer was added. Apoptotic cells were quantitatively counted by a BD Aria III Flow Cytometer (BD Biosciences, San Jose, Calif., USA)
In general terms: In flow cytometry, cells or beads pass a laser one at a time.

For assay [3], the system named is H1975 cells. The experiment in a line: MTT cytotoxicity assay. It counts as cell-based. The following applies: 72 h treatment, read-out: IC50 (cell proliferation, MTT). On the procedure: H1975 was purchased from ATCC (American type culture collection) and was cultivated with RPMI 1640 medium supplement with 10% fetal bovine serum (Gibco, Big Cabin, Oklahoma, Me., USA), 100 U/mL, penicillin and 100 μg/mL and streptomycin (Gibco, Big Cabin, Oklahoma, Me., USA). The cells were cultured in incubator with 5% CO2 at 37° C.
Cells were seeded in a 96-well microplate with 5000 cells/well confluence, and put into the incubator overnight for cell adhesion. Different concentrations of the drug D561-0775 were added with Dimethyl sulfoxide (DMSO) as vehicle control. The microplates were incubated for another 72 hours. The whole experiment was repeated in triplicate. 10 μL of MTT (5 mg/mL) solution was added to each well. The plate was placed back into the incubator for 4 hours. After that, 100 μL of resolved solution (10% SDS and 0.1 mM HCL) was added to each well. Before dissolving the formazan crystals, the microplate was put back into the incubator for another 4 hours. The absorbance of the plate was measured at 570 nm with reference at 650 nm by a microplate reader (Tecan, Morrisville, N.C., USA). Cell viability was calculated by percentages of the absorbance of the treatment group divided by the absorbance of untreated group. At least three independent experiments were performed for data analysis and presentation.

The test system of assay [4] is ACC. Kind of assay: Western blot analysis of ACC phosphorylation. As to conditions: H1975 cells, 24 hours. The class given is cell-based. On the procedure:
(§1) After incubating H1975 cells with D561-0775 for 24 hours, H1975 cells were harvested and washed with cold 1×PBS. Then, cells were lysed with ice-cold RIPA lysis buffer with protease and phosphatase inhibitors added to extract the cell protein extraction. The supernatants were collected by centrifugation at 12,000 g, for 5 minutes. The quantitation of total protein extraction was measured by Bio-Rad DCTM protein assay kit (Bio-Rad, Philadelphia, Pa., USA). Then 30 μg of protein was loaded and electrophoretically separated on 8% SDS-PAGE gel and then transferred to Nitrocellulose (NC) membrane. Membranes were blocked with 5% non-fat milk and […] containing 0.1% Tween-20 (TBST) for 1 hour at room temperature. After 1 hour, membranes were incubated with primary anti-bodies (1:1000 dilution) against GAPDH, total/phosphor-ACC, total-AMPK, and (1:500 dilution) against phosphor-AMPK, at 4° C. with gently shaking overnight. Membranes were washed with TBST for 3 times (5 minutes/time), and incubated with secondary fluorescent antibody (1:10000 dilutions) for 1 hour at room temperature. After rewashing the membranes with TBST for 3 times (15 minutes/time), the stripes were visualized by LI-COR Odessy scanner (Belfast, Me., USA).
(In general: Immunoblotting shows a protein as a band on a membrane.)

In assay [5] the test system is AMPK. Kind of assay: Western blot analysis of AMPK phosphorylation. It counts as cell-based. The following applies: H1975 cells, 24 hours. The procedure:
as §1

[6] abbreviates: 20 μM treatment group, **p<0.01, n=3.

As for `N#Cc1nc(-c2ccc(COc3ccc(Br)cc3)o2)oc1NCc1cccnc1` [D561-0775], the “AMPK kinase activity (fold of AMPK kinase alone group)” value in assay [1] is “enhanced in a dose-dependent manner”. In assay [2] (setting [6]), the “percentage of apoptotic cells vs control group” value was “significant higher percentage of apoptotic cells” and the “percentage of viable cells vs control group” value was “lower percentage of viable cells”. Also, in assay [2] (Annexin V/PI), the “apoptosis induction (flow cytometry)” value was “induced significant level of apoptosis in a dose-dependent manner”. Further, the cell morphology result in assay [2] (morphology observation) was “floated and rounded-up starting at 20 μM”. In addition, the IC50 in assay [3] worked out at 9.59 ± 1.73 µM. The “phosphorylation of ACC” value in assay [4] was “activated phosphorylation of both AMPK and ACC in a dose-dependent manner”. Further, the “phosphorylation of AMPK” value in assay [5] is “activated phosphorylation of both AMPK and ACC in a dose-dependent manner”.

These data come from patent US9364469B1, “Identification of a new AMPK activator for treatment of lung cancer” (Macau University of Science and Technology, priority 2015, dated 2016).
